Publication PMC7914648 (Pharmaceuticals, 2021)
“Also recorded” adds a separate entry of the source.

How the values were obtained:
[1] = Planar bilayer experiments (membrane permeabilization); conditions: 2 µM added to cis side, DPhPC bilayer, −40 mV, n = 3
Protocol: The possible effects of An2-PAPTP and TAT-PAPTP on phospholipid membranes were investigated using the lipid bilayer technique. Bilayers with a capacity of 100–150 pF were prepared “painting” a diphytanoylphosphatidylcholine (DPhPC, Avanti Polar Lipids) solution in octane across a 150-µm hole in a Delrin cuvette (Warner Instruments, a division of Harvard Bioscience, Inc., Holliston, MA, USA). The two compartments separated by the bilayer are identified as cis and trans, and all voltages refer to the cis side, zero being assigned to the trans (grounded) one. One mL of recording solution (150 mM KCl, 10 mM HEPES/KOH, pH 7.4) was placed in both compartments. The contents of both chambers were stirred by magnetic bars when necessary. […] An2-PAPTP or TAT-PAPTP (DMSO stock solution) in a final concentration of 0.5 µM were added to the cis side. The final concentration of DMSO was 0.6%. 2 µM gramicidin from Bacillus brevis (Sigma) was added to the cis side as control.
Electrical connections were made using Ag/AgCl electrodes and agar salt bridges to minimize eliminate liquid junction potentials. Data were acquired at 10 kHz using a Bilayer Clamp BC-525C amplifier (Warner Instruments, a division of Harvard Bioscience, Inc., Holliston, MA, USA.) and low-pass filtered at 300 Hz for presentation. […]

[2] = test system: cultured glioma and glioblastoma cell lines; conditions: cited from earlier work
Text: (§1) In turn, this difficulty may be due at least in part precisely to the TPP group, since the parent compound, PAP-1, is effective against various Central Nervous System (CNS) disorders. This difficulty is not surprising if one compares the characteristics of ...

orthotopic glioma = conditions: orthotopic murine model; cited from earlier work
Text: as §1

[3] = heart after tail vein injection; conditions: C57BL/6 mice, up to 60 min
[4] = spleen after tail vein injection; conditions: C57BL/6 mice, up to 60 min
[5] = kidneys after tail vein injection; conditions: C57BL/6 mice, up to 60 min
[6] = liver extract after tail vein injection; conditions: C57BL/6 mice, up to 60 min
[7] = fresh mouse blood, withdrawn from the jugular vein and heparinized; conditions: C57BL mice, 37 °C, up to 4 h
[8] = Aqueous solubility determination; format: physicochemical; conditions: kinetic, 25 mM DMSO stock diluted to 100 μM (DMSO < 0.4%), supernatant HPLC/UV
Protocol: For TAT-PAPTP and An2-PAPTP, three distinct suspensions were prepared by diluting 25 mM stock solutions in DMSO to 100 μM, in 0.9% NaCl saline or water (DMSO < 0.4%). The suspensions were sonicated 5 min and immediately analyzed. The suspensions were then centrifuged at 12,000× g, 18 °C, for 1 and 2 h, and the supernatants were analyzed by HPLC/UV at the end of each centrifugation. An additional analysis was performed after 24 h of standing. The chromatographic peak areas were used to determine the concentration of the compound in the supernatants, based on calibration curves built using solutions in DMSO.

[9] = Stability in blood (hydrolysis, PAPTPL release); format: in vitro ADME; conditions: fresh heparinized C57BL mouse blood, 37 °C, 5 µM from 5 mM DMSO stock, HPLC-UV, % PAPTPL released relative to amount spiked, mean, n = 5 (An2-PAPTP) and 4 (TAT-PAPTP)
Protocol: C57BL mice were anesthetized and blood was withdrawn from the jugular vein and heparinized. Blood samples (1 mL) were spiked with compound (5 µM; dilution from a 5 mM stock solution in DMSO) and incubated at 37 °C for 4 h (the maximum period allowed by blood stability). Aliquots were taken after 10 min, 30 min, 1 h, 2 h, and 4 h before HPLC-UV analysis.
Each aliquot was treated as described above (Section 4.7.1). Compound stability in blood was expressed as % of PAPTPL released relative to the amount of An2-PAPTP and TAT-PAPTP spiked in the sample at time 0.

[10] = format: in vivo, mouse
Protocol: The brains of these mice were analyzed to evaluate the presence of the construct in the tissue (see Section 4.7). Each brain was homogenized and incubated with an equal volume of phosphate-buffered saline (PBS, pH 12.5) for 24 h; 10 volumes of ethyl acetate were then added. After vigorous mixing, the organic phase was collected, concentrated and analyzed via HPLC. This procedure allows hydrolysis of the carbamate bond, leading to the extraction of PAPTPL, which is considered proportional to the amount of peptide-PAPTP conjugate (or its fragments) present in the brain.
The protocol set up for PAPTPL recovery turned out to be inefficient for the quantification of TAT-PAPTP. An alternative protocol was thus developed. Tissue obtained from untreated mice was weighed and homogenized with PBS pH 7.4 (1 vol) with a potter. The pre-established amount of analyte was added into tissue homogenates and, after thorough vortexing, 1 vol of PBS pH 12.5 was added and the sample was incubated with intermittent vortexing at 60 °C for 24 h. This step is required to allow the hydrolysis of the carbamate bond connecting the peptide and PAPTPL. 10 vol of ethyl acetate were added and, after vortexing and sonication for 2 min, the sample was centrifuged at 12,000× g, 7 min, Room Temperature. The organic phase was collected and concentrated with Hetovac VR-1. ACN was added to the concentrated sample to allow the resuspension of PAPTPL and analyzed via HPLC. Quantification was as described for PAPTPL.
Brain and liver obtained from untreated mice were weighed and homogenized with PBS pH 7.4 (1 vol) with a potter. The pre-established amount of analyte was added into tissue homogenates and, after thorough vortexing, 5 vol of acetone were added and the sample was sonicated for 2 min. Subsequently, 5 vol of ACN containing 0.1% trifluoracetic acid (TFA) were added and the sample was sonicated for 5 min. The sample was then centrifuged at 12,000× g for 7 min at 4 °C and the supernatant was collected, concentrated with a Hetovac VR-1, and analyzed via HPLC-UV.
To quantify the amount of An2-PAPTP stuck in the tissue, the pellet remaining after the procedure described above was incubated with intermittent Vortexing at 60 °C for 3 h with PBS pH 12.5/ACN 1:1 and then centrifuged at 12,000× g for 7 min. HPLC-UV analysis of the supernatant, measuring PAPTPL hydrolyzed from the tissue, thus indirectly reflects the amount of An2-PAPTPL in the pellet (Scheme 3). Quantification was as described for PAPTPL.
(§2) A stock solution of the peptide-PAPTP conjugates was prepared in DMSO. TAT-PAPTP was administered at 8 and 5 μmol/kg bw and An2-PAPTP only at 5 μmol/kg bw. The calculated quantity of drugs was diluted from the stock solution in saline or mouse plasma to a final volume of 200 μL.

C57BL mice = test: Observed toxicity after tail vein injection; format: in vivo; conditions: 5 µmoles/kg bw by tail vein injection in mouse plasma, no proper toxicological study
Protocol: TAT-PAPTP (5 µmoles/kg bw) was administered by tail vein injection to 2 C57BL mice. […] The observed toxicity was not due to the use of plasma, since mice were not made ill by the administration of PAPTP or An2-PAPTP in the same vehicle (see below, Section 2.7).
as §2

mouse Red Blood Cells = test: Haemolysis assay; format: cell-based; conditions: 5 × 10^7 mouse erythrocytes in 1 mL PBS pH 7.4, 2, 1 or 0.5 µM, 15 min, absorbance 540 nm, n = 3
Protocol: Haemolysis studies were conducted as described in [72]. Briefly, freshly withdrawn blood samples were centrifuged at 1000× g for 10 min to obtain erythrocytes; the pellet was then washed thrice with sterile PBS (pH 7.4). Erythrocytes (5 × 10^7 cells in 1 mL of PBS for each experimental condition) were incubated with 2, 1 or 0.5 µM An2-PAPTP or TAT-PAPTP for 15 min. The samples were then centrifuged and absorbance (Abs) of the supernatant was measured at 540 nm. Triton X-100 1% and PBS were used as positive and negative control, respectively.
The percentage of haemolysis was calculated with the following equation:% haemolysis = [(Abssample − AbsPBS)/AbsTriton X-100 − AbsPBS)] × 100

mice = conditions: cited from earlier work
Protocol: While in the name of “reduction” a proper toxicological study was not carried out, the toxicity of TAT-PAPTP was evident. Peptide toxicity issues are not often discussed in the literature, but peptides, in particular arginine-rich ones, can be toxic in vivo as well as for cultured cells. […] Here the TAT-PAPTP conjugate was administered at 5 µmol/kg bw. However, conjugates can behave differently and have different toxicities depending on the attached “cargo” [54, 65, 66], as confirmed by the results of the present ...

SHSY-5Y cells = test: MTS cell viability assay; format: cell-based; conditions: 24 h treatment, 20, 10 and 3 μM, absorbance 490 nm, n = 3
Protocol: SHSY-5Y cells (kindly provided by I. Szabò) were grown in Dulbecco’s Modified Eagle Medium (DMEM, Aurogene) supplemented with 10% (v/v) fetal bovine serum (FBS), 100 U/mL penicillin G, 0.1 mg/mL streptomycin and 5% glutamine.
SHSY-5Y cells were seeded (10,000 cells/well) in standard 96-well plates in DMEM (200 µL). After 24 h, the growth medium was replaced with a medium containing PAPTP and PAPTPL (from a stock solution in DMSO) at the desired final concentrations (20, 10 and 3 μM). DMEM without additions (CONTROL in Figure 2) was used as negative control. The final concentration of DMSO was 0.1% or lower in all cases (including control). After incubation for 24 h, 20 µL of CellTiter 96 AQUEOUS One solution (Promega, Italy) were added to each well and the plate was incubated at 37 °C in a humidified, 5% CO2 atmosphere for 4 h. Absorbance was measured at 490 nm to detect formazan formation.

[11] = Visible precipitation in mouse plasma vehicle; format: physicochemical; conditions: mouse plasma used as administration vehicle
Text: We are not aware of other pharmacological studies utilizing plasma as a vehicle, but a precedent of sorts is provided by some rejuvenation or induced aging studies that examined the systemic effects of heterologous plasma administration.

## gramicidin
[1]
  appearance of ion currents in planar bilayers (control): expected development of “fast” ion currents

## O=C(NCCC[P+](c1ccccc1)(c1ccccc1)c1ccccc1)Oc1ccc(OCCCCOc2c3ccoc3cc3oc(=O)ccc23)cc1.[I-] [PCARBTP, (3-(((4-(4-((7-oxo-7H-furo[3,2-g]chromen-4-yl)oxy)butoxy)phenoxy)carbonyl)amino)propyl)triphenylphosphonium iodide]
[2]
  killing of cultured glioma and glioblastoma cell lines: efficiently killed
Orthotopic glioma
  effect on tumor growth: did not affect tumor growth

## HN-ITFFYGGSRGKRNNFKTEEY-OH
[3]
  fragment found: PAPTPL, 15 min; also recorded: PAPTPL-IT, 30 min; also recorded: PAPTPL-ITF, 30 min
[4]
  fragment found: PAPTPL-ITF, 15 min; also recorded: PAPTPL-I, 15 min; also recorded: PAPTPL-IT, 15 min
[5]
  fragment found: PAPTPL-I, 15 min; also recorded: PAPTPL-IT, 15 min; also recorded: PAPTPL-ITF, 15 min
[6]
  fragment found: PAPTPL-I, 15 min; also recorded: PAPTPL-IT, 15 min; also recorded: PAPTPL-ITF, 15 min
[7]
  cleaved bond: hydrolysis of the carbamate bond connecting the peptide and PAPTPL, 10 min

## CC[C@H](C)[C@H](NC(=O)Oc1ccc(CCCOc2ccc([P+](CCCc3ccc(OCCCCOc4c5ccoc5cc5oc(=O)ccc45)cc3)(c3ccccc3)c3ccccc3)cc2)cc1)C(=O)NCC(=O)N[C@@H](CCCNC(=N)N)C(=O)N[C@@H](CCCCN)C(=O)N[C@@H](CCCCN)C(=O)N[C@@H](CCCNC(=N)N)C(=O)N[C@@H](CCCNC(=N)N)C(=O)N[C@@H](CCC(N)=O)C(=O)N[C@@H](CCCNC(=N)N)C(=O)N[C@@H](CCCNC(=N)N)C(=O)N[C@@H](CCCNC(=N)N)C(=O)N1CCC[C@H]1C(=O)N1CCC[C@H]1C(=O)N[C@@H](CCC(N)=O)C(=O)NCC(=O)O [TAT-PAPTP]
[8]; 0.9% NaCl saline, sonicated 5 min, centrifuged 12,000 × g 18 °C 1 and 2 h, detection limit 0.1 µM
  solubility in 0.9% NaCl saline: > 100 µM
[8]; water, sonicated, centrifuged 12,000 × g 18 °C
  solubility in water: > 100 µM
[9]
  hydrolyzed in mouse blood over 4 h (PAPTPL released): more stable
[10]; TAT-PAPTP 5 µmoles/kg bw i.v. tail vein in mouse plasma, 2 C57BL mice sacrificed within 15 min, PAPTPL extracted after hydrolysis at pH 12.5, HPLC
  construct level in brain: 0.2–0.3 nmoles/g fresh tissue
C57BL mice
  observed toxicity in mice: evident signs of illness (respiratory difficulties, trailing limbs, swelling of the paws)
C57BL mice; listed as TAT-PAPT
  observed toxicity in mice: more toxic than its individual components (TAT and PAPTP) as well as than An2-PAPTP
Mouse Red Blood Cells
  haemolysis (release of haemoglobin): did

## TAT47–57: arginine-rich TAT peptide segment
mice
  LD50: 17.5 µmol/kg bw

## O=c1ccc2c(OCCCCOc3ccc(CCC[P+](c4ccccc4)(c4ccccc4)c4ccccc4)cc3)c3ccoc3cc2o1.[I-] [PAPTP, (3-(4-(4-((7-oxo-7H-furo[3,2-g]benzopyran-4-yl)oxy)butoxy)phenyl)propyl) triphenyl phosphonium iodide]
SHSY-5Y cells
  cytotoxic effect (cell viability, MTS reduction assay): marked cytotoxicity
[10]; PAPTP 5 µmoles/kg bw i.v. in mouse plasma, same procedure
  level in brain after i.v. PAPTP: did not reach detectable levels
C57BL mice
  observed toxicity in mice: not made ill; also recorded: No sign of toxicity was observed
[11]
  visible precipitates in plasma: did not form visible precipitates
[2]
  killing of cultured glioma and glioblastoma cell lines: efficiently killed
Orthotopic glioma
  effect on tumor growth: did not affect tumor growth
